Patent US20240287138A1, “CYCLIC PEPTIDES FOR INHIBITING TNF RECEPTOR 1 ACTIVITY” (Merck Sharp & Dohme LLC, priority 2023, published 2024)
Numbered stars: 1 amine (or outer) side, 2 acyl side, 3 side chain; on linkers, the order of the positions; unused ones are H or OH. Bridge positions count the residues as written; N and C are the ends. Square brackets hold non-standard residues; d marks the D form. Peptide text beside a SMILES is read from it. * marks the point of attachment. Trp(βS-Me,7-OMe) = COc1cccc2c([C@H](C)[C@H](N)C(=O)O)c[nH]c12; Trp(7-Cl) = N[C@@H](Cc1c[nH]c2c(Cl)cccc12)C(=O)O; X8 = O=C([C@@H]1C[C@@H](O)[C@H](N[*:1])C1)[*:2]; Phe(4-CONH2) = NC(=O)c1ccc(C[C@H](N)C(=O)O)cc1; Phe(4-COOH) = N[C@@H](Cc1ccc(C(=O)O)cc1)C(=O)O; Trp(7-aza) = N[C@@H](Cc1c[nH]c2ncccc12)C(=O)O; Phe(4-CH2NH2) = NCc1ccc(C[C@H](N)C(=O)O)cc1; X18 = O=C([C@@H]1C=C[C@H](N[*:1])C1)[*:2]; Pip(5R-OH) = O=C(O)[C@@H]1CC[C@@H](O)CN1; X1 = O=C([C@@H]1CC[C@H](N[*:1])C1)[*:2]; X38 = CC(C)(CO)CN(CC(=O)[*:2])[*:1]; Pip(4-aza) = O=C(O)[C@@H]1CNCCN1; hPhe = N[C@@H](CCc1ccccc1)C(=O)O; 4Pal = N[C@@H](Cc1ccncc1)C(=O)O; NMeE = CN[C@@H](CCC(=O)O)C(=O)O; Pip = O=C(O)[C@@H]1CCCCN1; αMeS = C[C@](N)(CO)C(=O)O; Carboxymethyl = O=C(O)C*; NMeA = CN[C@@H](C)C(=O)O; Nle = CCCC[C@H](N)C(=O)O; Nme = COCCNCC(=O)O; Sar = CNCC(=O)O

Key:
[1] = target: T1, TNFα-induced NF-κB signal transduction pathway (TNFR1 signaling) in THP-1 cells (Homo sapiens, UniProt P19438); assay: THP-1 Lucia NF-κB reporter cell assay, inhibition of TNFα-induced NF-κB signaling; format: cell-based; conditions: THP-1 NF-κB Lucia reporter cells, 10 ng/mL TNFα, 16-18 h, secreted luciferase; read-out: THP-1 IC50
T1 sequence (P19438 30-455): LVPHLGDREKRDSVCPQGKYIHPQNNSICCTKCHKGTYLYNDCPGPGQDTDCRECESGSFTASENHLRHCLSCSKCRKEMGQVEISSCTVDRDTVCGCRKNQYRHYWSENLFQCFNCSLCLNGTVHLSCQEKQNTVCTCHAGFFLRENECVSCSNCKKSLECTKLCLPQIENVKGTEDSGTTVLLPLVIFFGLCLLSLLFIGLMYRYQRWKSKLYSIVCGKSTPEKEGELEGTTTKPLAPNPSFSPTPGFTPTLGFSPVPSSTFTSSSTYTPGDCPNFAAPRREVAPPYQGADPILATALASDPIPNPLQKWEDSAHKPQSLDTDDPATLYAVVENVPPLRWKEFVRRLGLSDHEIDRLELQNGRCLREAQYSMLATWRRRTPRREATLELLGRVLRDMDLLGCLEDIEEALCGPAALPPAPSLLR
Procedure, shortened: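 Read-out: secreted Lucia luciferase luminescence (QUANTI-Luc) from supernatant after 16-18 h, 37 °C, 10 ng/mL rhTNFα. Peptide pretreatment 1 h at 37 °C; 20,000 cells/well, selection antibiotics omitted. IC50 via 4-parameter logistic model against min/max controls.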

[2] = target: T2, human TNFR1 extracellular domain (ECD) protein (Homo sapiens, UniProt P19438); assay: SPR binding affinity to captured human TNFR1 ECD
T2 construct: HRV 3C protease cleavage site (C); 6His (C, cleaved yes); made in house; host or cells: Sf21 insect cells (baculovirus), secreted
T2 sequence (P19438 30-211): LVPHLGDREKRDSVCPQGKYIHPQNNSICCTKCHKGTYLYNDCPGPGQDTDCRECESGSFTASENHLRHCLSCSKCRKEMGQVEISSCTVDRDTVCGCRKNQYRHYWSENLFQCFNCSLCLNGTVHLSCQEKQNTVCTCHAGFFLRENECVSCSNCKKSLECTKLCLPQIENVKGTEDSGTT
Experimental: (§1) B. Procedure for Binding Affinity and Selectivity measured by SPR
(§2) Affinity and selectivity for hTNFR1 and TNFR2 was determined using SPR. Human TNFR1 or TNFR2 genes (extracellular domain only) were synthesized with a C-terminal Avi-tag, HRV 3C protease cleavage site followed by a 6His-tag for affinity purification. The final gene product was cloned into pBAC™-1 vector (Millipore Sigma) for expression testing in insect cells. Constructs were transfected into Sf21 cells for baculovirus generation followed by protein expression analysis in Sf21 and Tni cell lines. Large scale expression in Sf21 cells was performed using baculovirus infected insect cells (BIICs) infected at a MOI=2.0 grown for 72 h. Target proteins secreted into the media were harvested via centrifugation and concentrated using diafiltration. TNFR was purified by immobilized metal ion affinity chromatography (IMAC) using a Ni-Sepharose HisTrap™ column (Cytiva™). Isolated TNFR had His tag removed using HRV 3C protease followed by additional purification using Ni-NTA chromatography. Biotinylation was performed on Ni-NTA flow-through fractions concentrated to 45 μM and treated with BirA ligase (1:100, μg/μg ratio) in 50 mM Tris pH 7.5, 150 mM NaCl, 50 μM biotin, 10 mM magnesium acetate, 10 mM ATP at 4° C. for 20 h. Final purification of biotin-TNFR and buffer exchange into 20 mM HEPES pH 7.5, 150 mM NaCl was performed using a HiLoad® Superdex® 200 26/60 column (Cytiva™). Highly purified protein was aliquoted and stored at −80° C.
(§3) The SPR assay uses a Cytiva™ 8K or 8K+ biosensor instrument to measure the kinetics of peptide analytes binding to captured human TNFR1 extracellular domain (ECD) protein; peptide analytes are also evaluated for any off-target binding to human TNFR2 ECD protein in parallel. Recombinant human TNFR1 ECD and human TNFR2 ECD proteins, biotinylated via engineered C-terminal avi-tags, are immobilized to a regenerable streptavidin biosensor chip surface (Cytiva™ Biotin CAPture kit, Series S; cat. #28920234). Peptide analytes binding to immobilized human TNFR1 ECD protein and their subsequent dissociation are conducted in a buffer of 10 mM HEPES pH 7.4, 150 mM NaCl, 3 mM EDTA, 0.05% P20,2% DMSO under laminar flow conditions and measured in response units (RU), which are directly proportional to the accumulated mass on the surface of the biosensor chip; the biosensor chip surface is regenerated via Cytiva™ proprietary methods between the evaluation of each peptide analyte. […] The SPR assay determines the association and dissociation rate constants, kon and koff, for each peptide analyte and, from these values, calculates the binding affinity, […] reported in Table 2.

human TNFR2 ECD protein = target: T3, human TNFR2 ECD protein (Homo sapiens, UniProt P20333); assay: SPR off-target binding (selectivity) to human TNFR2 ECD
T3 construct: HRV 3C protease cleavage site (C); 6His (C, cleaved yes); made in house; host or cells: Sf21 insect cells (baculovirus), secreted
T3 sequence (P20333 23-257): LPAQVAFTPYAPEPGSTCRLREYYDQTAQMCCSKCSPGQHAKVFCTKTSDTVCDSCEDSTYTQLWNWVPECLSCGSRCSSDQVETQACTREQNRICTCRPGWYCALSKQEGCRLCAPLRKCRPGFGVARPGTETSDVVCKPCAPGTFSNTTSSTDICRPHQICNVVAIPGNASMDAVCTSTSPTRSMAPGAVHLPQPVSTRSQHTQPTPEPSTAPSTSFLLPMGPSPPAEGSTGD
Experimental: as §1, §2, §3

| SMILES | IC50 [1] | Kd [2] | Kd (human TNFR2 ECD protein) |
| --- | --- | --- | --- |
| C[C@H]1C(=O)N[C@@H](CC(N)=O)C(=O)N[C@@H](Cc2ccncc2)C(=O)N[C@@H](Cc2c[nH]c3ccccc23)C(=O)N[C@@](C)(CO)C(=O)N[C@@H](Cc2ccc(C(=O)O)cc2)C(=O)N[C@@H](Cc2ccc(O)cc2)C(=O)N(C)CC(=O)N[C@@H](Cc2c[nH]c3ccccc23)C(=O)N[C@H]2C=C[C@H](C2)C(=O)N[C@@H](CCc2ccccc2)C(=O)N[C@@H](Cc2ccncc2)C(=O)N[C@@H](CO)C(=O)N[C@@H](Cc2c[nH]c3ccccc23)C(=O)N1C [SEQ ID NO. 73] (cyclo([4Pal]SW[NMeA]N[4Pal]W[αMeS][Phe(4-COOH)]Y[Sar]W[X18][hPhe])) | 5.8 nM | 0.9 nM | > 1000 nM |
| CCCC[C@@H]1NC(=O)[C@@H]2CC[C@@H](C2)NC(=O)[C@H]([C@@H](C)c2c[nH]c3c(OC)cccc23)NC(=O)CN(C)C(=O)[C@H](Cc2ccc(O)cc2)NC(=O)[C@H](Cc2ccc(C(N)=O)cc2)NC(=O)[C@](C)(CO)NC(=O)[C@H](Cc2c[nH]c3c(Cl)cccc23)NC(=O)[C@H](Cc2ccc(OCC(=O)O)cc2)NC(=O)[C@H](CC(N)=O)NC(=O)[C@H](CCC(=O)O)N(C)C(=O)[C@H](Cc2c[nH]c3ccccc23)NC(=O)[C@@H]2CC[C@@H](O)CN2C(=O)[C@H](Cc2ccncc2)NC1=O [SEQ ID NO. 44] (cyclo([4Pal][Pip(5R-OH)]W[NMeE]NY(Carboxymethyl)[Trp(7-Cl)][αMeS][Phe(4-CONH2)]Y[Sar][Trp(βS-Me,7-OMe)][X1][Nle])) | 0.5 nM | 0.16 nM | > 1000 nM |
| CCCC[C@@H]1NC(=O)CSC[C@@H](C(N)=O)NC(=O)[C@H]([C@@H](C)c2c[nH]c3c(OC)cccc23)NC(=O)CN(C)C(=O)[C@H](Cc2ccc(O)cc2)NC(=O)[C@H](Cc2ccc(C(=O)O)cc2)NC(=O)[C@](C)(CO)NC(=O)[C@H](Cc2c[nH]c3c(Cl)cccc23)NC(=O)[C@H](Cc2ccncc2)NC(=O)[C@H](CC(N)=O)NC(=O)CN(CC(C)(C)CO)C(=O)[C@H](Cc2c[nH]c3ncccc23)NC(=O)[C@@H]2CCCCN2C(=O)[C@H](Cc2ccncc2)NC1=O [SEQ ID NO. 61] ({CH2CO}-[Nle][4Pal][Pip][Trp(7-aza)][X38]N[4Pal][Trp(7-Cl)][αMeS][Phe(4-COOH)]Y[Sar][Trp(βS-Me,7-OMe)]C-NH2; thioether N-14) | 3.6 nM | – | > 1000 nM |
| CCCC[C@@H]1NC(=O)CSC[C@@H](C(N)=O)NC(=O)[C@H]([C@@H](C)c2c[nH]c3c(OC)cccc23)NC(=O)CN(C)C(=O)[C@H](Cc2ccc(O)cc2)NC(=O)[C@H](Cc2ccc(C(=O)O)cc2)NC(=O)[C@](C)(CO)NC(=O)[C@H](Cc2c[nH]c3c(Cl)cccc23)NC(=O)[C@H](Cc2ccncc2)NC(=O)[C@H](CC(N)=O)NC(=O)CN(CCOC)C(=O)[C@H](Cc2c[nH]c3ncccc23)NC(=O)[C@@H]2CCCCN2C(=O)[C@H](Cc2ccncc2)NC1=O [SEQ ID NO. 62] ({CH2CO}-[Nle][4Pal][Pip][Trp(7-aza)][Nme]N[4Pal][Trp(7-Cl)][αMeS][Phe(4-COOH)]Y[Sar][Trp(βS-Me,7-OMe)]C-NH2; thioether N-14) | 4.4 nM | – | > 1000 nM |
| CCCC[C@@H]1NC(=O)CSC[C@@H](C(N)=O)NC(=O)[C@H]([C@@H](C)c2c[nH]c3c(OC)cccc23)NC(=O)CN(C)C(=O)[C@H](Cc2ccc(C(N)=O)cc2)NC(=O)[C@H](Cc2ccc(C(=O)O)cc2)NC(=O)[C@](C)(CO)NC(=O)[C@H](Cc2c[nH]c3c(Cl)cccc23)NC(=O)[C@H](Cc2ccncc2)NC(=O)[C@H](CC(N)=O)NC(=O)[C@H](CCC(=O)O)N(C)C(=O)[C@H](Cc2c[nH]c3ccccc23)NC(=O)[C@@H]2CNCCN2C(=O)[C@H](Cc2ccncc2)NC1=O [SEQ ID NO. 124] ({CH2CO}-[Nle][4Pal][Pip(4-aza)]W[NMeE]N[4Pal][Trp(7-Cl)][αMeS][Phe(4-COOH)][Phe(4-CONH2)][Sar][Trp(βS-Me,7-OMe)]C-NH2; thioether N-14) | – | 0.12 nM | > 1000 nM |
| CCCC[C@@H]1NC(=O)CSC[C@@H](C(N)=O)NC(=O)[C@H]([C@@H](C)c2c[nH]c3c(OC)cccc23)NC(=O)CN(C)C(=O)[C@H](Cc2ccc(O)cc2)NC(=O)[C@H](Cc2ccc(C(=O)O)cc2)NC(=O)[C@](C)(CO)NC(=O)[C@H](Cc2c[nH]c3c(Cl)cccc23)NC(=O)[C@H](Cc2ccc(CN)cc2)NC(=O)[C@H](CC(N)=O)NC(=O)[C@H](CCC(=O)O)N(C)C(=O)[C@H](Cc2c[nH]c3ccccc23)NC(=O)[C@@H]2CC[C@@H](O)CN2C(=O)[C@H](Cc2ccncc2)NC1=O [SEQ ID NO. 96] ({CH2CO}-[Nle][4Pal][Pip(5R-OH)]W[NMeE]N[Phe(4-CH2NH2)][Trp(7-Cl)][αMeS][Phe(4-COOH)]Y[Sar][Trp(βS-Me,7-OMe)]C-NH2; thioether N-14) | 1.6 nM | – | > 1000 nM |
| CCCC[C@@H]1NC(=O)[C@@H]2C[C@@H](O)[C@@H](C2)NC(=O)[C@H]([C@@H](C)c2c[nH]c3c(OC)cccc23)NC(=O)CN(C)C(=O)[C@H](Cc2ccc(O)cc2)NC(=O)[C@H](Cc2ccc(C(=O)O)cc2)NC(=O)[C@](C)(CO)NC(=O)[C@H](Cc2c[nH]c3c(Cl)cccc23)NC(=O)[C@H](Cc2ccncc2)NC(=O)[C@H](CC(N)=O)NC(=O)[C@H](CCC(=O)O)N(C)C(=O)[C@H](Cc2c[nH]c3ccccc23)NC(=O)[C@@H]2CNCCN2C(=O)[C@H](Cc2ccncc2)NC1=O [SEQ ID NO. 34] (cyclo([4Pal][Trp(7-Cl)][αMeS][Phe(4-COOH)]Y[Sar][Trp(βS-Me,7-OMe)][X8][Nle][4Pal][Pip(4-aza)]W[NMeE]N)) | 0.7 nM | – | > 1000 nM |
| CCCC[C@@H]1NC(=O)[C@@H]2CC[C@@H](C2)NC(=O)[C@H]([C@@H](C)c2c[nH]c3c(OC)cccc23)NC(=O)CN(C)C(=O)[C@H](Cc2ccc(O)cc2)NC(=O)[C@H](Cc2ccc(C(=O)O)cc2)NC(=O)[C@](C)(CO)NC(=O)[C@H](Cc2c[nH]c3c(Cl)cccc23)NC(=O)[C@H](Cc2ccncc2)NC(=O)[C@H](CC(N)=O)NC(=O)CN(CCOC)C(=O)[C@H](Cc2c[nH]c3ccccc23)NC(=O)[C@@H]2CNCCN2C(=O)[C@H](Cc2ccncc2)NC1=O [SEQ ID NO. 82] (cyclo([4Pal][Trp(7-Cl)][αMeS][Phe(4-COOH)]Y[Sar][Trp(βS-Me,7-OMe)][X1][Nle][4Pal][Pip(4-aza)]W[Nme]N)) | – | 0.07 nM | > 1000 nM |
